Measurements reported in ChEMBL document CHEMBL1141668, “Synthesis and biological activity of imidazopyridine anticoccidial agents: Part II” (Eur J Med Chem, 2008).
One block for each compound: values may come before it.

Tests used:
Eimeria maxima [1] = test: Anticoccidial activity against Eimeria maxima in chickens assessed as reduction of oocysts at 12.5 ppm measured after 8 days by ExMAC assay relative to untreated control; assay type: functional; set-up: scale not given: the % may be the effect or the level left
Eimeria acervulina [2] = test: Anticoccidial activity against Eimeria acervulina in chickens assessed as reduction of oocysts at 10 ppm measured after 8 days by ExMAC assay relative to untreated control; assay type: functional; set-up: scale not given: the % may be the effect or the level left
Eimeria mitis [3] = test: Anticoccidial activity against Eimeria mitis in chickens assessed as reduction of oocysts at 6 ppm measured after 8 days by ExMAC assay relative to untreated control; assay type: functional; set-up: scale not given: the % may be the effect or the level left
Eimeria acervulina [4] = test: Anticoccidial activity against Eimeria acervulina in chickens assessed as reduction of oocysts at 12.5 ppm measured after 8 days by ExMAC assay relative to untreated control; assay type: functional; set-up: scale not given: the % may be the effect or the level left
Eimeria acervulina [5] = test: Anticoccidial activity against Eimeria acervulina in chickens assessed as reduction of oocysts at 8 ppm measured after 8 days by ExMAC assay relative to untreated control; assay type: functional; set-up: scale not given: the % may be the effect or the level left
Eimeria maxima [6] = test: Anticoccidial activity against Eimeria maxima in chickens assessed as reduction of oocysts at 8 ppm measured after 8 days by ExMAC assay relative to untreated control; assay type: functional; set-up: scale not given: the % may be the effect or the level left
Eimeria maxima [7] = test: Anticoccidial activity against Eimeria maxima in chickens assessed as reduction of oocysts at 10 ppm measured after 8 days by ExMAC assay relative to untreated control; assay type: functional; set-up: scale not given: the % may be the effect or the level left
[8] = target: cGMP-dependent protein kinase (Eimeria tenella, UniProt Q8MMZ8); test: Inhibition of Eimeria tenella cGMP-dependent protein kinase
Eimeria maxima [9] = test: Anticoccidial activity against Eimeria maxima in chickens assessed as reduction of oocysts at 25 ppm measured after 8 days by ExMAC assay relative to untreated control; assay type: functional; set-up: scale not given: the % may be the effect or the level left
Eimeria maxima [10] = test: Anticoccidial activity against Eimeria maxima in chickens assessed as reduction of oocysts at 6 ppm measured after 8 days by ExMAC assay relative to untreated control; assay type: functional; set-up: scale not given: the % may be the effect or the level left
Eimeria tenella [11] = test: Anticoccidial activity against Eimeria tenella in chickens assessed as reduction of oocysts at 10 ppm measured after 8 days by ExMAC assay relative to untreated control; assay type: functional; set-up: scale not given: the % may be the effect or the level left
Eimeria mitis [12] = test: Anticoccidial activity against Eimeria mitis in chickens assessed as reduction of oocysts at 12.5 ppm measured after 8 days by ExMAC assay relative to untreated control; assay type: functional; set-up: scale not given: the % may be the effect or the level left
Eimeria mitis [13] = test: Anticoccidial activity against Eimeria mitis in chickens assessed as reduction of oocysts at 8 ppm measured after 8 days by ExMAC assay relative to untreated control; assay type: functional; set-up: scale not given: the % may be the effect or the level left
Eimeria tenella [14] = test: Anticoccidial activity against Eimeria tenella in chickens assessed as reduction of oocysts at 8 ppm measured after 8 days by ExMAC assay relative to untreated control; assay type: functional; set-up: scale not given: the % may be the effect or the level left
Eimeria tenella [15] = test: Anticoccidial activity against Eimeria tenella in chickens assessed as reduction of oocysts at 12.5 ppm measured after 8 days by ExMAC assay relative to untreated control; assay type: functional; set-up: scale not given: the % may be the effect or the level left
Eimeria acervulina [16] = test: Anticoccidial activity against Eimeria acervulina in chickens assessed as reduction of oocysts at 6 ppm measured after 8 days by ExMAC assay relative to untreated control; assay type: functional; set-up: scale not given: the % may be the effect or the level left
Eimeria tenella [17] = test: Anticoccidial activity against Eimeria tenella in chickens assessed as reduction of oocysts at 25 ppm measured after 8 days by ExMAC assay relative to untreated control; assay type: functional; set-up: scale not given: the % may be the effect or the level left
Eimeria tenella [18] = test: Anticoccidial activity against Eimeria tenella in chickens assessed as reduction of oocysts at 6 ppm measured after 8 days by ExMAC assay relative to untreated control; assay type: functional; set-up: scale not given: the % may be the effect or the level left
Eimeria mitis [19] = test: Anticoccidial activity against Eimeria mitis in chickens assessed as reduction of oocysts at 25 ppm measured after 8 days by ExMAC assay relative to untreated control; assay type: functional; set-up: scale not given: the % may be the effect or the level left
Eimeria acervulina [20] = test: Anticoccidial activity against Eimeria acervulina in chickens assessed as reduction of oocysts at 25 ppm measured after 8 days by ExMAC assay relative to untreated control; assay type: functional; set-up: scale not given: the % may be the effect or the level left
Eimeria mitis [21] = test: Anticoccidial activity against Eimeria mitis in chickens assessed as reduction of oocysts at 10 ppm measured after 8 days by ExMAC assay relative to untreated control; assay type: functional; set-up: scale not given: the % may be the effect or the level left
Eimeria mitis [22] = test: Anticoccidial activity against Eimeria mitis in chickens assessed as reduction of oocysts at 50 ppm measured after 8 days by ExMAC assay relative to untreated control; assay type: functional; set-up: scale not given: the % may be the effect or the level left
Eimeria maxima [23] = test: Anticoccidial activity against Eimeria maxima in chickens assessed as reduction of oocysts at 50 ppm measured after 8 days by ExMAC assay relative to untreated control; assay type: functional; set-up: scale not given: the % may be the effect or the level left
Eimeria tenella [24] = test: Anticoccidial activity against Eimeria tenella in chickens assessed as reduction of oocysts at 50 ppm measured after 8 days by ExMAC assay relative to untreated control; assay type: functional; set-up: scale not given: the % may be the effect or the level left
Eimeria acervulina [25] = test: Anticoccidial activity against Eimeria acervulina in chickens assessed as reduction of oocysts at 50 ppm measured after 8 days by ExMAC assay relative to untreated control; assay type: functional; set-up: scale not given: the % may be the effect or the level left
Eimeria tenella [26] = test: Anticoccidial activity against Eimeria tenella in chickens assessed as reduction of oocysts at 2 ppm measured after 8 days by ExMAC assay relative to untreated control; assay type: functional; set-up: scale not given: the % may be the effect or the level left
Eimeria acervulina [27] = test: Anticoccidial activity against Eimeria acervulina in chickens assessed as reduction of oocysts at 4 ppm measured after 8 days by ExMAC assay relative to untreated control; assay type: functional; set-up: scale not given: the % may be the effect or the level left
Eimeria maxima [28] = test: Anticoccidial activity against Eimeria maxima in chickens assessed as reduction of oocysts at 2 ppm measured after 8 days by ExMAC assay relative to untreated control; assay type: functional; set-up: scale not given: the % may be the effect or the level left
Eimeria acervulina [29] = test: Anticoccidial activity against Eimeria acervulina in chickens assessed as reduction of oocysts at 1 ppm measured after 8 days by ExMAC assay relative to untreated control; assay type: functional; set-up: scale not given: the % may be the effect or the level left
Eimeria mitis [30] = test: Anticoccidial activity against Eimeria mitis in chickens assessed as reduction of oocysts at 4 ppm measured after 8 days by ExMAC assay relative to untreated control; assay type: functional; set-up: scale not given: the % may be the effect or the level left
Eimeria acervulina [31] = test: Anticoccidial activity against Eimeria acervulina in chickens assessed as reduction of oocysts at 2 ppm measured after 8 days by ExMAC assay relative to untreated control; assay type: functional; set-up: scale not given: the % may be the effect or the level left
Eimeria maxima [32] = test: Anticoccidial activity against Eimeria maxima in chickens assessed as reduction of oocysts at 1 ppm measured after 8 days by ExMAC assay relative to untreated control; assay type: functional; set-up: scale not given: the % may be the effect or the level left
Eimeria tenella [33] = test: Anticoccidial activity against Eimeria tenella in chickens assessed as reduction of oocysts at 1 ppm measured after 8 days by ExMAC assay relative to untreated control; assay type: functional; set-up: scale not given: the % may be the effect or the level left
Eimeria tenella [34] = test: Anticoccidial activity against Eimeria tenella in chickens assessed as reduction of oocysts at 4 ppm measured after 8 days by ExMAC assay relative to untreated control; assay type: functional; set-up: scale not given: the % may be the effect or the level left
Eimeria mitis [35] = test: Anticoccidial activity against Eimeria mitis in chickens assessed as reduction of oocysts at 2 ppm measured after 8 days by ExMAC assay relative to untreated control; assay type: functional; set-up: scale not given: the % may be the effect or the level left
Eimeria maxima [36] = test: Anticoccidial activity against Eimeria maxima in chickens assessed as reduction of oocysts at 4 ppm measured after 8 days by ExMAC assay relative to untreated control; assay type: functional; set-up: scale not given: the % may be the effect or the level left
Eimeria mitis [37] = test: Anticoccidial activity against Eimeria mitis in chickens assessed as reduction of oocysts at 1 ppm measured after 8 days by ExMAC assay relative to untreated control; assay type: functional; set-up: scale not given: the % may be the effect or the level left

cGMP-dependent protein kinase, sequence (Q8MMZ8 whole entry): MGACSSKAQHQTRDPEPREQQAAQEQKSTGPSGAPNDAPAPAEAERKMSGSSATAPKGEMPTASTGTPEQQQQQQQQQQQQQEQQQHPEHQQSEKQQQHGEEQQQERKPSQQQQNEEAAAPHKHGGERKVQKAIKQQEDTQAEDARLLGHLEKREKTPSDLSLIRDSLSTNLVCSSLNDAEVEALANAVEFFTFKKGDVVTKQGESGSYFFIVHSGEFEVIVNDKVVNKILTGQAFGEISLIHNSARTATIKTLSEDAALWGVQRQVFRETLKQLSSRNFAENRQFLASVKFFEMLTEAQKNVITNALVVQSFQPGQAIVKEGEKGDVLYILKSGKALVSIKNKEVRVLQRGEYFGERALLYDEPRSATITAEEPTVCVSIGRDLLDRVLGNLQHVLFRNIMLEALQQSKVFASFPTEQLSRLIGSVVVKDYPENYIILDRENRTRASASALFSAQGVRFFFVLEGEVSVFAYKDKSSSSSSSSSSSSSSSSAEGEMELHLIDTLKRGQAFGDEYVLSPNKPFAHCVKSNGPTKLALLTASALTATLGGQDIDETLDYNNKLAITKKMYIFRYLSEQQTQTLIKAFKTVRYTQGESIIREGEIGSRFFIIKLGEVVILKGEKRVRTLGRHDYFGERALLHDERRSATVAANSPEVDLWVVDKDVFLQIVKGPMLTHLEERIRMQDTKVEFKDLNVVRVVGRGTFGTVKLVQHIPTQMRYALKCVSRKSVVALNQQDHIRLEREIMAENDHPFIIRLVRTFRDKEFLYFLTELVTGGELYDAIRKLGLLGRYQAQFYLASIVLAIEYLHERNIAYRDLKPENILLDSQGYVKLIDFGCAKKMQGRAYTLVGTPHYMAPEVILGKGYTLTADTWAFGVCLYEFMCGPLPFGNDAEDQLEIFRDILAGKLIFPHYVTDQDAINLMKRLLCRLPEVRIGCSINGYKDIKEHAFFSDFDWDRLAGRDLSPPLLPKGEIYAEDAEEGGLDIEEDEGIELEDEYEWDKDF

IC50 [8]: 0.044 nM
SMILES: CN1CCC(c2ccn3c(-c4ccnc(N)n4)c(-c4ccc(F)cc4)nc3c2)CC1
Activity (Eimeria maxima [1]): 100% | Activity (Eimeria acervulina [2]): 100% | Activity (Eimeria mitis [3]): 80% | Activity (Eimeria acervulina [4]): 100% | Activity (Eimeria acervulina [5]): 80% | Activity (Eimeria maxima [6]): 100% | Activity (Eimeria maxima [7]): 100% | Activity (Eimeria maxima [9]): 100% | Activity (Eimeria maxima [10]): 100% | Activity (Eimeria tenella [11]): 100% | Activity (Eimeria mitis [12]): 100% | Activity (Eimeria mitis [13]): 80% | Activity (Eimeria tenella [14]): 100% | Activity (Eimeria tenella [15]): 100% | Activity (Eimeria acervulina [16]): 80% | Activity (Eimeria tenella [17]): 100% | Activity (Eimeria tenella [18]): 100% | Activity (Eimeria mitis [19]): 100% | Activity (Eimeria acervulina [20]): 100% | Activity (Eimeria mitis [21]): 100%

IC50 [8]: 0.13 nM
SMILES: CCC(c1ccn2c(-c3ccnc(N)n3)c(-c3ccc(F)cc3)nc2c1)N(C)C (centres undefined)
Activity (Eimeria maxima [1]): 100% | Activity (Eimeria acervulina [4]): 100% | Activity (Eimeria acervulina [5]): 80% | Activity (Eimeria maxima [6]): 50% | Activity (Eimeria mitis [12]): 100% | Activity (Eimeria mitis [13]): <50% | Activity (Eimeria tenella [14]): 50% | Activity (Eimeria tenella [15]): 100%

IC50 [8]: 0.11 nM
SMILES: CCN1CCC(c2ccn3c(-c4ccnc(N)n4)c(-c4ccc(F)cc4)nc3c2)CC1
Activity (Eimeria maxima [1]): 100% | Activity (Eimeria acervulina [2]): 80% | Activity (Eimeria mitis [3]): 80% | Activity (Eimeria acervulina [4]): 80% | Activity (Eimeria acervulina [5]): 80% | Activity (Eimeria maxima [6]): 100% | Activity (Eimeria maxima [7]): 100% | Activity (Eimeria maxima [9]): 100% | Activity (Eimeria maxima [10]): <50% | Activity (Eimeria tenella [11]): 100% | Activity (Eimeria mitis [12]): 100% | Activity (Eimeria mitis [13]): 80% | Activity (Eimeria tenella [14]): 100% | Activity (Eimeria tenella [15]): 100% | Activity (Eimeria acervulina [16]): <50% | Activity (Eimeria tenella [17]): 100% | Activity (Eimeria tenella [18]): 100% | Activity (Eimeria mitis [19]): 100% | Activity (Eimeria acervulina [20]): 100% | Activity (Eimeria mitis [21]): 80%

IC50 [8]: 1.8 nM
SMILES: NC(=O)c1ccn2c(-c3ccnc(N)n3)c(-c3ccc(F)cc3)nc2c1
Activity (Eimeria mitis [22]): <50% | Activity (Eimeria maxima [23]): 50% | Activity (Eimeria tenella [24]): 80% | Activity (Eimeria acervulina [25]): <50%

IC50 [8]: 0.067 nM
SMILES: CC(c1ccn2c(-c3ccnc(N)n3)c(-c3ccc(F)cc3)nc2c1)N(C)C (single isomer, unassigned; enantiomer B)
Activity (Eimeria tenella [26]): 80% | Activity (Eimeria acervulina [27]): 80% | Activity (Eimeria maxima [28]): 80% | Activity (Eimeria acervulina [29]): 80% | Activity (Eimeria mitis [30]): 80% | Activity (Eimeria acervulina [31]): 100% | Activity (Eimeria maxima [32]): 100% | Activity (Eimeria tenella [33]): 50% | Activity (Eimeria tenella [34]): 80% | Activity (Eimeria mitis [35]): 80% | Activity (Eimeria maxima [36]): 100% | Activity (Eimeria mitis [37]): <50%
